According to ChEMBL document CHEMBL1201862, “PubChem BioAssay data set” (2004):
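Test compounds were applied to cells in 96-well plates for 48 hours at 5 doses. Abbreviation: GI50, concentration required for 50% inhibition of growth.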 Active and inactive are the calls of the source. Cut-off read from the data, not from the text of the source: active = GI50 up to about 1.1 µM and inactive = higher.

Legend:
Assay in all cases: NCI anticancer screen, dose series, 48 h
[1] = system: UACC-257
[2] = system: UO-31
[3] = system: ACHN
[4] = system: HCT-116
[5] = system: UACC-62
[6] = system: IGROV-1
[7] = system: RXF 393
[8] = system: BT-549
[9] = system: SF-295
[10] = system: 786-0
[11] = system: K562
[12] = system: T47D
[13] = system: NCI/ADR-RES
[14] = system: MDA-MB-435
[15] = system: MCF7
[16] = system: SNB-75
[17] = system: HOP-62
[18] = system: OVCAR-5
[19] = system: KM12
[20] = system: MOLT-4
[21] = system: A498
[22] = system: Malme-3M
[23] = system: SK-MEL-28
[24] = system: NCI-H226
[25] = system: HT-29
[26] = system: NCI-H23
[27] = system: EKVX
[28] = system: HL-60
[29] = system: SW-620
[30] = system: TK-10
[31] = system: LOX IMVI
[32] = system: Hs-578T
[33] = system: RPMI-8226
[34] = system: CAKI-1
[35] = system: NCI-H460
[36] = system: NCI-H522
[37] = system: M14
[38] = system: SN12C
[39] = system: SR
[40] = system: OVCAR-3
[41] = system: SK-OV-3
[42] = system: HOP-92
[43] = system: U-251
[44] = system: COLO 205
[45] = system: PC-3
[46] = system: MDA-N
[47] = system: SNB-19
[48] = system: SK-MEL-2
[49] = system: SK-MEL-5
[50] = system: DU-145
[51] = system: OVCAR-4
[52] = system: OVCAR-8
[53] = system: MDA-MB-231
[54] = system: SF-268
[55] = system: HCT-15
[56] = system: A549
[57] = system: HCC 2998
[58] = system: SF-539
[59] = system: CCRF-CEM

## CCC1c2[nH]c3ccccc3c2C[C@H]2C(=O)NC(CCCCNC(=O)OC(C)(C)C)C(=O)N12 (some centres undefined)
[1]
  GI50: 21.2 µM (inactive)
[2]
  GI50: 34.6 µM (inactive)
[3]
  GI50: 35.9 µM (inactive)
[4]
  GI50: 26.1 µM (inactive)
[5]
  GI50: 20.5 µM (inactive)
[6]
  GI50: 36.1 µM (inactive)
[7]
  GI50: 30.5 µM (inactive)
[8]
  GI50: 24.1 µM (inactive)
[9]
  GI50: 22.9 µM (inactive)
[10]
  GI50: 22.2 µM (inactive)
[11]
  GI50: 35.8 µM (inactive)
[12]
  GI50: 31 µM (inactive)
[13]
  GI50: 25.7 µM (inactive)
[14]
  GI50: 20.5 µM (inactive)
[15]
  GI50: 35.8 µM (inactive)
[16]
  GI50: 15.3 µM (inactive)
[17]
  GI50: 35.4 µM (inactive)
[18]
  GI50: 68.4 µM (inactive)
[19]
  GI50: 18.5 µM (inactive)
[20]
  GI50: 19.1 µM (inactive)
[21]
  GI50: 52.8 µM (inactive)
[22]
  GI50: 18 µM (inactive)
[23]
  GI50: 41.1 µM (inactive)
[24]
  GI50: > 100 µM (inactive)
[25]
  GI50: 30.5 µM (inactive)
[26]
  GI50: 25.9 µM (inactive)
[27]
  GI50: 42 µM (inactive)
[28]
  GI50: 31.8 µM (inactive)
[29]
  GI50: 47.2 µM (inactive)
[30]
  GI50: 33.6 µM (inactive)
[31]
  GI50: 24.8 µM (inactive)
[32]
  GI50: 19.7 µM (inactive)
[33]
  GI50: 24.5 µM (inactive)
[34]
  GI50: 25.9 µM (inactive)
[35]
  GI50: 30.1 µM (inactive)
[36]
  GI50: 20.7 µM (inactive)
[37]
  GI50: 17.5 µM (inactive)
[38]
  GI50: 27.5 µM (inactive)
[39]
  GI50: 24.8 µM (inactive)
[40]
  GI50: 18.4 µM (inactive)
[41]
  GI50: 55.8 µM (inactive)
[42]
  GI50: 34 µM (inactive)
[43]
  GI50: 38.5 µM (inactive)
[44]
  GI50: 29.9 µM (inactive)
[45]
  GI50: 22.7 µM (inactive)
[46]
  GI50: 20.7 µM (inactive)
[47]
  GI50: 44.2 µM (inactive)
[48]
  GI50: 26.6 µM (inactive)
[49]
  GI50: 20.7 µM (inactive)
[50]
  GI50: 48.4 µM (inactive)
[51]
  GI50: 28.2 µM (inactive)
[52]
  GI50: 33 µM (inactive)
[53]
  GI50: 32.7 µM (inactive)
[54]
  GI50: 45.1 µM (inactive)
[55]
  GI50: 31 µM
[56]
  GI50: 34.3 µM (inactive)

## Cc1ccc(C(=O)CCl)o1
[1]
  GI50: > 9.2 µM (inactive)
[2]
  GI50: > 4.67 µM (inactive)
[3]
  GI50: > 10 µM (inactive)
[4]
  GI50: 1.86 µM (inactive)
[5]
  GI50: > 7.91 µM (inactive)
[6]
  GI50: > 9.68 µM (inactive)
[7]
  GI50: > 9.31 µM (inactive)
[8]
  GI50: 5.3 µM (inactive)
[9]
  GI50: > 10 µM (inactive)
[10]
  GI50: 4.28 µM (inactive)
[11]
  GI50: 3.93 µM (inactive)
[12]
  GI50: 4.61 µM (inactive)
[13]
  GI50: > 10 µM (inactive)
[14]
  GI50: 3.25 µM (inactive)
[15]
  GI50: 3.52 µM (inactive)
[57]
  GI50: > 10 µM (inactive)
[16]
  GI50: > 9.46 µM (inactive)
[58]
  GI50: 4.15 µM (inactive)
[17]
  GI50: > 10 µM (inactive)
[18]
  GI50: > 5.6 µM (inactive)
[19]
  GI50: > 10 µM (inactive)
[20]
  GI50: 2.13 µM (inactive)
[21]
  GI50: > 10 µM (inactive)
[22]
  GI50: 3.18 µM (inactive)
[23]
  GI50: > 10 µM (inactive)
[24]
  GI50: > 10 µM (inactive)
[25]
  GI50: 4.71 µM (inactive)
[26]
  GI50: 5.37 µM (inactive)
[27]
  GI50: > 10 µM (inactive)
[28]
  GI50: 2.11 µM (inactive)
[29]
  GI50: 2.3 µM (inactive)
[30]
  GI50: 6.9 µM (inactive)
[31]
  GI50: 2.98 µM (inactive)
[32]
  GI50: > 10 µM (inactive)
[33]
  GI50: 2.33 µM (inactive)
[34]
  GI50: 3.12 µM (inactive)
[35]
  GI50: > 10 µM (inactive)
[36]
  GI50: 2.92 µM (inactive)
[37]
  GI50: 3.86 µM (inactive)
[38]
  GI50: 3.69 µM (inactive)
[39]
  GI50: 3.07 µM (inactive)
[40]
  GI50: > 7.23 µM (inactive)
[41]
  GI50: > 10 µM (inactive)
[42]
  GI50: > 10 µM (inactive)
[43]
  GI50: > 10 µM (inactive)
[44]
  GI50: 3.01 µM (inactive)
[45]
  GI50: > 10 µM (inactive)
[46]
  GI50: > 7.08 µM (inactive)
[47]
  GI50: > 10 µM (inactive)
[48]
  GI50: > 10 µM (inactive)
[49]
  GI50: > 7.96 µM (inactive)
[50]
  GI50: > 10 µM (inactive)
[59]
  GI50: 2.39 µM (inactive)
[51]
  GI50: 4.15 µM (inactive)
[52]
  GI50: > 4.5 µM (inactive)
[53]
  GI50: > 7.31 µM (inactive)
[54]
  GI50: > 6.97 µM (inactive)
[55]
  GI50: 4.93 µM
[56]
  GI50: > 10 µM (inactive)

## COCCOCCOC1=C(Cl)C(=O)c2c(O)ccc(O)c2C1=O
[1]
  GI50: 1.99 µM (inactive)
[2]
  GI50: 2.16 µM (inactive)
[3]
  GI50: 1.68 µM (inactive)
[4]
  GI50: 0.923 µM (active)
[5]
  GI50: 1.63 µM (inactive)
[6]
  GI50: 2.62 µM (inactive)
[7]
  GI50: 1.44 µM (inactive)
[8]
  GI50: 2.15 µM (inactive)
[9]
  GI50: 11.7 µM (inactive)
[10]
  GI50: 1.12 µM (active)
[11]
  GI50: 1.21 µM (inactive)
[12]
  GI50: 2.54 µM (inactive)
[13]
  GI50: 2.93 µM (inactive)
[14]
  GI50: 1.74 µM (inactive)
[15]
  GI50: 1.97 µM (inactive)
[57]
  GI50: 18.6 µM (inactive)
[16]
  GI50: 15.6 µM (inactive)
[58]
  GI50: 1.67 µM (inactive)
[17]
  GI50: 2.39 µM (inactive)
[18]
  GI50: 9.04 µM (inactive)
[19]
  GI50: 12.8 µM (inactive)
[20]
  GI50: 0.303 µM (active)
[21]
  GI50: 3.59 µM (inactive)
[22]
  GI50: 1.65 µM (inactive)
[23]
  GI50: 2.33 µM (inactive)
[24]
  GI50: 18.1 µM (inactive)
[25]
  GI50: 3.48 µM (inactive)
[26]
  GI50: 2.48 µM (inactive)
[27]
  GI50: 8.57 µM (inactive)
[28]
  GI50: 0.207 µM (active)
[29]
  GI50: 0.287 µM (active)
[30]
  GI50: 1.52 µM (inactive)
[31]
  GI50: 1.95 µM (inactive)
[32]
  GI50: 3.11 µM (inactive)
[33]
  GI50: 0.718 µM (active)
[34]
  GI50: 1.27 µM (inactive)
[35]
  GI50: 12.9 µM (inactive)
[36]
  GI50: 1.01 µM (active)
[37]
  GI50: 1.59 µM (inactive)
[38]
  GI50: 1.89 µM (inactive)
[39]
  GI50: 0.399 µM (active)
[40]
  GI50: 1.63 µM (inactive)
[41]
  GI50: 19 µM (inactive)
[42]
  GI50: 1.98 µM (inactive)
[43]
  GI50: 5.16 µM (inactive)
[44]
  GI50: 1.03 µM (active)
[45]
  GI50: 5.42 µM (inactive)
[46]
  GI50: 5.02 µM (inactive)
[47]
  GI50: 13.5 µM (inactive)
[48]
  GI50: 1.17 µM (inactive)
[49]
  GI50: 1.71 µM (inactive)
[50]
  GI50: 9.31 µM (inactive)
[59]
  GI50: 0.414 µM (active)
[51]
  GI50: 1.85 µM (inactive)
[52]
  GI50: 2.21 µM (inactive)
[53]
  GI50: 2.01 µM (inactive)
[54]
  GI50: 2.59 µM (inactive)
[55]
  GI50: 1.61 µM
[56]
  GI50: 8.02 µM (inactive)
